From patent publication US20150157739A1, “Imidazo[2,1]thiazol-3-one derivatives” (Hoffmann-La Roche Inc., priority 2012, published 2015) come the findings set out here.

A value given as a limit tells only on which side of the number the result lay.

Assay [1] deals with T1, aggregated recombinant human-microtubule associated protein Tau (Homo sapiens, UniProt P10636).
T1 construct: Recombinant human-microtubule associated protein Tau purified from E. coli is aggregated at a concentration of 5 μM with Arachidonic Acid (100 μM) in Tris 10 mM pH8, 24 h at 37° C
T1 sequence (P10636 whole entry): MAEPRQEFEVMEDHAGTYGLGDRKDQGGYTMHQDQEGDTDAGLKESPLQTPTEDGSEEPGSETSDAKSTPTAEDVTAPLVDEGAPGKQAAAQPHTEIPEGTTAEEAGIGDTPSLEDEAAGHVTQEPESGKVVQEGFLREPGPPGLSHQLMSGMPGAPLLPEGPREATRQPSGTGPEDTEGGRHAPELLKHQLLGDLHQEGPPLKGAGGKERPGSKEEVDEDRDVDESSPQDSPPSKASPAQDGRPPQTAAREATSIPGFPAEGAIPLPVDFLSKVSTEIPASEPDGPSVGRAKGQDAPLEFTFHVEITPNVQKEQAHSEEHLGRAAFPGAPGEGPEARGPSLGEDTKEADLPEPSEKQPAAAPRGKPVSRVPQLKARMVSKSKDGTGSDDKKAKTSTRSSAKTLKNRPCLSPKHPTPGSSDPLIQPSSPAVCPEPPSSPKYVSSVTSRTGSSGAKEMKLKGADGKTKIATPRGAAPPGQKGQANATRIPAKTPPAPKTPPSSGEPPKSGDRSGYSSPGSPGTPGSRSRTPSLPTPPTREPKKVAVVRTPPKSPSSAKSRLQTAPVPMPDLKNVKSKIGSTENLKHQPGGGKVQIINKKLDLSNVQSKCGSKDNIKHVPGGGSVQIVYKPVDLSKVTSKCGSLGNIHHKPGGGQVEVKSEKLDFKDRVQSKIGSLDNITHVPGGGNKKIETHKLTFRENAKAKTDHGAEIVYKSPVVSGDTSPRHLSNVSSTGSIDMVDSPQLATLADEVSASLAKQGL
Kind of assay: Thiazin-red R displacement fluorescence assay on aggregated Tau. The format is binding. Particulars: displacement of Thiazin-red R from aggregated Tau; compound 0.3 nM to 10000 nM; 30 min room temperature; Ex 531 nm/Em 595 nm. The procedure:
(§1) Assay for Determination of […] for Tau and A-Beta
(§2) Recombinant human-microtubule associated protein Tau purified from E. coli is aggregated at a concentration of 5 μM with Arachidonic Acid (100 μM) in Tris 10 mM pH8, 24 h at 37° C. Synthetic Aβ40 is aggregated at a concentration of 50 μM with Arachidonic Acid (100 μM) in Tris 10 mM pH8, for three days at 37° C., under shaking at 150 rpm.
(§3) A saturation analysis of Thiazin-red R to the aggregated proteins is done to determine the affinity (Kd) of the Thiazin-red R to the aggregated protein.
(§4) Thiazin-red R will be added at the concentration corresponding to the Kd to the respective aggregated protein binding site, to induce a fluorescent signal that can be inhibited by the addition of a displacer compound.
(§5) In parallel, auto fluorescence of the compound is measured together with the aggregated proteins, but without Thiazin-red R. As negative control, ligand and aggregated protein is used and as positive control, Thiazin-red R, reference compound with known activity and aggregated protein is used.
(§6) Assay is performed in Perkin Elmer OptiPlate 384, black, 45 ul assay volume, assay buffer is DPBS no CaCl2 no MgCl2 (GIBCO N. 14020). Tested compounds are diluted in DMSO and 2 μl is added to the assay ([…]). Assay is started by the addition of the aggregated protein (competitive condition). Plates are shortly shacked (1 min with Sterico variomag teleshake) and incubated for 30 min at room temperature. Measurement are done with En:Vision (Perkin Elmer), at Excitation 531 nm/Emission 595 nm.

Assay [2] concerns the target T2, aggregated synthetic Aβ40 (Homo sapiens, UniProt P05067).
T2 construct: Synthetic Aβ40 is aggregated at a concentration of 50 μM
Kind of assay: Thiazin-red R displacement fluorescence assay on aggregated A-beta. In kind it is binding. The note with it: displacement of Thiazin-red R from aggregated Aβ40; compound 0.3 nM to 10000 nM; 30 min room temperature; Ex 531 nm/Em 595 nm. The protocol: as §1, §2, §3, §4, §5, §6

T2 sequence (P05067 672-711 limits assumed): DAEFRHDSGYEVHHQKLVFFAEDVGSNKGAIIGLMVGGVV

The term IC50 denotes the concentration needed to halve the response being measured. With `COc1ccc(-c2nc3s/c(=C\c4cc(Cl)c(O)c(OC)c4)c(=O)n3c2C)cc1` [Example 14, 2-[1-(3-Chloro-4-hydroxy-5-methoxy-phenyl)-meth-(Z)-ylidene]-6-(4-methoxy-phenyl)-5-methyl-imidazo[2,1-b]thiazol-3-one], the IC50 was 37 nM in assay [1] and 466 nM in assay [2].

As to `COc1ccc(-c2nc3s/c(=C\c4cc(F)c(O)c(OC)c4)c(=O)n3c2C)cc1` [Example 15, 2-[1-(3-Fluoro-4-hydroxy-5-methoxy-phenyl)-meth-(Z)-ylidene]-6-(4-methoxy-phenyl)-5-methyl-imidazo[2,1-b]thiazol-3-one], the IC50 in assay [1] was 53 nM; in assay [2], 437 nM.

On to `COc1cc(/C=c2\sc3nc(-c4ccnc(C)c4)cn3c2=O)cc(OC)c1O` [Example 16, 2-[1-(4-Hydroxy-3,5-dimethoxy-phenyl)-meth-(Z)-ylidene]-6-(2-methyl-pyridin-4-yl)-imidazo[2,1-b]thiazol-3-one], for which the figures for the IC50 in assay [1] and in assay [2] were 8 nM and 32 nM, respectively.

In the case of `COc1cc(/C=c2\sc3nc(-c4cc(C)nc(C)c4)cn3c2=O)cc(OC)c1O` [Example 17, 2-[1-(4-Hydroxy-3,5-dimethoxy-phenyl)-meth-(Z)-ylidene]-6-(2,6-dimethyl-pyridin-4-yl)-imidazo[2,1-b]thiazol-3-one], the figures for the IC50 in assay [1] and in assay [2] were 5 nM and 68 nM, respectively.

On to `COc1cc(/C=c2\sc3nc(-c4cccc(OC(F)(F)F)c4)cn3c2=O)cc(OC)c1O` [Example 18, 2-[1-(4-Hydroxy-3,5-dimethoxy-phenyl)-meth-(Z)-ylidene]-6-(3-trifluoromethoxy-phenyl)-imidazo[2,1-b]thiazol-3-one], for which the figures for the IC50 in assay [1] and in assay [2] were 4 nM and 114 nM, respectively.

Turning to `COc1cc(/C=c2\sc3nc(-c4cccc(C(F)(F)F)c4)cn3c2=O)cc(OC)c1O` [Example 19, 2-[1-(4-Hydroxy-3,5-dimethoxy-phenyl)-meth-(Z)-ylidene]-6-(3-trifluoromethyl-phenyl)-imidazo[2,1-b]thiazol-3-one], the IC50 in assay [1] came to 1 nM; in assay [2] it was 115 nM.

Regarding `COc1cc(/C=c2\sc3nc(-c4cccc(C)c4)cn3c2=O)cc(OC)c1O` [Example 20, 2-[1-(4-Hydroxy-3,5-dimethoxy-phenyl)-meth-(Z)-ylidene]-6-m-tolyl-imidazo[2,1-b]thiazol-3-one], the IC50 in assay [1] was 3 nM; in assay [2], 20 nM.

For `COc1cc(/C=c2\sc3nc(-c4cccc(OC(F)(F)F)c4)cn3c2=O)cc(Cl)c1O` [Example 22, 2-[1-(3-Chloro-4-hydroxy-5-methoxy-phenyl)-meth-(Z)-ylidene]-6-(3-trifluoromethoxy-phenyl)-imidazo[2,1-b]thiazol-3-one], the IC50 in assay [1] worked out at 3 nM; in assay [2], 198 nM.

Turning to `COc1cc(/C=c2\sc3nc(-c4ccc(C(=O)N(C)CCOCCF)cc4)cn3c2=O)cc(Cl)c1O` [Example 23, 4-{2-[1-(3-Chloro-4-hydroxy-5-methoxy-phenyl)-meth-(Z)-ylidene]-3-oxo-2,3-dihydro-imidazo[2,1-b]thiazol-6-yl}-N-[2-(2-fluoro-ethoxy)-ethyl]-N-methyl-benzamide], the IC50 amounted to 26 nM in assay [1] and 328 nM in assay [2].

Consider `COc1cc(/C=c2\sc3nc(-c4cccc(C(F)(F)F)c4)cn3c2=O)cc(Cl)c1O` [Example 24, 2-[1-(3-Chloro-4-hydroxy-5-methoxy-phenyl)-meth-(Z)-ylidene]-6-(3-trifluoromethyl-phenyl)-imidazo[2,1-b]thiazol-3-one], for which the IC50 in assay [1] was 3 nM; in assay [2], 123 nM.

On to `CCOc1cc(/C=c2\sc3nc(-c4ccc(Cl)cc4)cn3c2=O)cc(OC)c1O` [Example 26, 6-(4-Chloro-phenyl)-2-[1-(3-ethoxy-4-hydroxy-5-methoxy-phenyl)-meth-(Z)-ylidene]-imidazo[2,1-b]thiazol-3-one], for which the IC50 was found to be 2 nM in assay [1] and 4 nM in assay [2].

On to `COc1cc(/C=c2\sc3nc(-c4ccc(Cl)cc4)cn3c2=O)cc(OCCF)c1O` [Example 27, 6-(4-Chloro-phenyl)-2-[1-(3-(2-fluoro-ethoxy)-4-hydroxy-5-methoxy-phenyl)-meth-(Z)-ylidene]-imidazo[2,1-b]thiazol-3-one], for which the results for the IC50 in assay [1] and in assay [2] were 1 nM and 7 nM, respectively.

As to `COc1cc(/C=c2\sc3nc(-c4ccc(C(F)(F)F)c(F)c4)cn3c2=O)cc(Cl)c1O` [Example 28, 2-[1-(3-Chloro-4-hydroxy-5-methoxy-phenyl)-meth-(Z)-ylidene]-6-(3-fluoro-4-trifluoromethyl-phenyl)-imidazo[2,1-b]thiazol-3-one], the IC50 in assay [1] stood at 23 nM; in assay [2], 1060 nM.

As to `COc1cc(/C=c2\sc3nc(-c4ccc(C(F)(F)F)c(F)c4)cn3c2=O)cc(OC)c1O` [Example 29], the IC50 in assay [1] was determined as 11 nM; in assay [2], 43 nM.

Take `COc1cc(/C=c2\sc3nc(-c4ccc(Cl)cc4)cn3c2=O)cc(OC(C)C)c1O` [Example 30, 6-(4-Chloro-phenyl)-2-[1-(4-hydroxy-3-isopropoxy-5-methoxy-phenyl)-meth-(Z)-ylidene]-imidazo[2,1-b]thiazol-3-one]: the results for the IC50 in assay [1] and in assay [2] were 6 nM and 16 nM, respectively.

In the case of `CCCOc1cc(/C=c2\sc3nc(-c4ccc(Cl)cc4)cn3c2=O)cc(OC)c1O` [Example 31, 6-(4-Chloro-phenyl)-2-[1-(4-hydroxy-3-methoxy-5-propoxy-phenyl)-meth-(Z)-ylidene]-imidazo[2,1-b]thiazol-3-one], the results for the IC50 in assay [1] and in assay [2] were 3 nM and 12 nM, respectively.

`COc1cc(/C=c2\sc3nc(-c4ccc(Cl)cc4)cn3c2=O)cc(C)c1O` [Example 32, 6-(4-Chloro-phenyl)-2-[1-(4-hydroxy-3-methoxy-5-methyl-phenyl)-meth-(Z)-ylidene]-imidazo[2,1-b]thiazol-3-one]: the figures for the IC50 in assay [1] and in assay [2] were 7 nM and 39 nM, respectively.

In the case of `CCCOc1cc(/C=c2\sc3nc(-c4cccc(OC(F)(F)F)c4)cn3c2=O)cc(OC)c1O` [Example 33, 2-[1-(4-Hydroxy-3-methoxy-5-propoxy-phenyl)-meth-(Z)-ylidene]-6-(3-trifluoromethoxy-phenyl)-imidazo[2,1-b]thiazol-3-one], the IC50 came out at 25 nM in assay [1] and 256 nM in assay [2].

For `COc1cc(/C=c2\sc3nc(-c4cccc(OC(F)(F)F)c4)cn3c2=O)cc(OC(C)C)c1O` [Example 34, 2-[1-(4-Hydroxy-3-methoxy-5-isopropoxy-phenyl)-meth-(Z)-ylidene]-6-(3-trifluoromethoxy-phenyl)-imidazo[2,1-b]thiazol-3-one], the results for the IC50 in assay [1] and in assay [2] were 26 nM and 437 nM, respectively.

With `COc1cc(/C=c2\sc3nc(-c4cccc(OC(F)(F)F)c4)cn3c2=O)ccc1O` [Example 36, 2-[1-(4-Hydroxy-3-methoxy-phenyl)-meth-(Z)-ylidene]-6-(3-trifluoromethoxy-phenyl)-imidazo[2,1-b]thiazol-3-one], the values for the IC50 in assay [1] and in assay [2] were 401 nM and over 10000 nM, respectively.

`COc1cc(/C=c2\sc3nc(-c4cccc(OC(F)(F)F)c4)cn3c2=O)cc(Br)c1O` [Example 37, 2-[1-(3-Bromo-4-hydroxy-5-methoxy-phenyl)-meth-(Z)-ylidene]-6-(3-trifluoromethoxy-phenyl)-imidazo[2,1-b]thiazol-3-one]: the IC50 in assay [1] is 6 nM; in assay [2] it was 552 nM.

In the case of `COc1cc(/C=c2\sc3nc(-c4cccc(Cl)c4)cn3c2=O)cc(F)c1O` [Example 39, 2-[1-(3-fluoro-4-hydroxy-5-methoxy-phenyl)-meth-(Z)-ylidene]-6-(3-chloro-phenyl)-imidazo[2,1-b]thiazol-3-one], the IC50 turned out to be 11 nM in assay [1] and 412 nM in assay [2].

For the compound `CCc1cc(/C=c2\sc3nc(-c4cccc(OC(F)(F)F)c4)cn3c2=O)cc(OC)c1O` [Example 40, 2-[1-(3-Ethyl-4-hydroxy-5-methoxy-phenyl)-meth-(Z)-ylidene]-6-(3-trifluoromethoxy-phenyl)-imidazo[2,1-b]thiazol-3-one], the half-maximal inhibitory concentration (IC50) was 701 nM in assay [1] and over 10000 nM in assay [2].

For `COc1cc(/C=c2\sc3nc(-c4cccc(C(F)(F)F)c4)cn3c2=O)cc(F)c1O` [Example 41, 2-[1-(3-fluoro-4-hydroxy-5-methoxy-phenyl)-meth-(Z)-ylidene]-6-(3-(trifluoromethyl)-phenyl)-imidazo[2,1-b]thiazol-3-one], the IC50 in assay [1] was 16 nM; in assay [2], 1810 nM.

In the case of `COc1cc(/C=c2\sc3nc(-c4ccc(F)c(C(F)(F)F)c4)cn3c2=O)cc(F)c1O` [Example 42, 2-[1-(3-fluoro-4-hydroxy-5-methoxy-phenyl)-meth-(Z)-ylidene]-6-(4-fluoro-3-(trifluoromethyl)-phenyl)-imidazo[2,1-b]thiazol-3-one], the values for the concentration for half-maximal inhibition (IC50) in assay [1] and in assay [2] were 24 nM and 198 nM, respectively.
